Test results taken from ChEMBL document CHEMBL3611972, “Leishmanicidal, antiproteolytic, and mutagenic evaluation of alkyltriazoles and alkylphosphocholines” (Eur J Med Chem, 2015).

Experiments:
[1] = system: Leishmania amazonensis; test: microbe, parasite or virus in culture; type: functional, organism-based; settings: MHOM/BR/71973/M2269, 72 h
Description: Leishmanicidal activity against Leishmania amazonensis MHOM/BR/71973/M2269 promastigotes assessed as reduction in surviving parasites incubated for 72 hrs by Neubauer's chamber based cell counting method

[2] = Cytotoxicity against mouse peritoneal macrophages assessed as reduction in cell viability incubated for 72 hrs by MTT assay; type: cell-based, Peritoneal macrophage cell
[3] = Selectivity index, ratio of CC50 for mouse peritoneal macrophages to IC50 for Leishmania amazonensis MHOM/BR/71973/M2269 amastigotes infected in mouse peritoneal macrophages; type: functional
[4] = Inhibition of Leishmania mexicana cysteine protease r-CPB2.8 using Z-FR-AMC fluorogenic substrate by spectrofluorometry
[5] = system: Leishmania amazonensis; test: Leishmanicidal activity against Leishmania amazonensis MHOM/BR/71973/M2269 amastigotes infected in mouse peritoneal macrophages assessed as reduction in surviving parasites incubated for 72 hrs by Giemsa staining based optical light microscopy; type: functional, organism-based; settings: MHOM/BR/71973/M2269, 72 h
[6] = system: Salmonella typhimurium; test: Mutagenicity in Salmonella typhimurium TA100 assessed as number of revertants at 5 ug/plate incubated for 90 mins at 37 degC in presence of liver S9 fractions by Ames test relative to untreated control; settings: salmonella enterica subsp. enterica serovar typhimurium, s9, 1.5 h
[7] = system: Salmonella typhimurium; test: Mutagenicity in Salmonella typhimurium TA102 assessed as number of revertants at 5 ug/plate incubated for 90 mins at 37 degC in presence of liver S9 fractions by Ames test relative to control; settings: salmonella enterica subsp. enterica serovar typhimurium, s9, 1.5 h
[8] = system: Salmonella typhimurium; test: Mutagenicity in Salmonella typhimurium TA102 assessed as mutagenicity index at 5 ug/plate incubated for 90 mins at 37 degC in presence of liver S9 fractions by Ames test relative to untreated control; type: toxicity, organism-based; settings: salmonella enterica subsp. enterica serovar typhimurium, s9, 1.5 h
[9] = system: Salmonella typhimurium; test: Mutagenicity in Salmonella typhimurium TA98 assessed as mutagenicity index at 10 ug/plate incubated for 90 mins at 37 degC in absence of liver S9 fractions by Ames test relative to control; type: toxicity, organism-based; settings: salmonella enterica subsp. enterica serovar typhimurium, 1.5 h
[10] = system: Salmonella typhimurium; test: Mutagenicity in Salmonella typhimurium TA98 assessed as mutagenicity index at 10 ug/plate incubated for 90 mins at 37 degC in absence of liver S9 fractions by Ames test relative to untreated control; type: toxicity, organism-based; settings: salmonella enterica subsp. enterica serovar typhimurium, 1.5 h

IC50 [1] | IC50 [4] | SMILES | Ratio CC50/IC50 [3] | IC50 [5] | other results
51.7 µM |  | CS(=O)(=O)OCCCCCCCCCCCCn1cc(CO)nn1 |  |  | 
27.9 µM | 6.08 µM | CCOC(=O)c1cn(CCCCCCCCCCCCI)nn1 | 5.28 | 17.7 µM | CC50 at 72 h [2]: 93.4 µM
219 µM |  | CCOC(=O)c1cn(CCCCCCOS(C)(=O)=O)nn1 |  |  | 
19.3 µM | 1.22 µM | OCCCc1cn(CCCCCCCCCCCCI)nn1 | 2.79 | 23.7 µM | CC50 at 72 h [2]: 66.2 µM
 |  | N=C(N)c1ccc(OCCCCCOc2ccc(C(=N)N)cc2)cc1 [PENTAMIDINE] | 1.69 | 6.62 µM | 
25.6 µM | 8.35 µM | C[N+](C)(C)CCOP(=O)([O-])OCCCCCCCCCCCCN=[N+]=[N-] | 33.76 | 3.81 µM | CC50 at 72 h [2]: 129 µM
4.7 µM |  | C[C@@H]1[C@H](O)[C@@H](C)/C=C/C=C/C=C/C=C/C=C/C=C/C=C/[C@H](O[C@@H]2O[C@H](C)[C@@H](O)[C@H](N)[C@@H]2O)C[C@@H]2O[C@](O)(C[C@@H](O)C[C@@H](O)[C@H](O)CC[C@@H](O)C[C@@H](O)CC(=O)O[C@H]1C)C[C@H](O)[C@H]2C(=O)O [AMPHOTERICIN B] | 4.44 | 6.1 µM | 
81.7 µM |  | OCCCc1cn(CCCCCCCCCF)nn1 |  |  | 
 |  | Nc1ccc2cc3ccccc3cc2c1 [2-AMINOANTHRACENE] |  |  | Revertants [6]: 1020 revertants/plate; Revertants [7]: 2510 revertants/plate; Revertants [8]: 2510 revertants/plate
229 µM |  | CS(=O)(=O)OCCCCCCn1cc(CCCO)nn1 |  |  | 
136 µM |  | C[N+](C)(C)CCOP(=O)([O-])OCCCCCCCCCN=[N+]=[N-] |  |  | 
4.01 µM | 4.53 µM | CS(=O)(=O)OCCCCCCCCCCCCn1cc(CCCOS(C)(=O)=O)nn1 | 2.14 | 70.2 µM | CC50 at 72 h [2]: 156 µM
 |  | Nc1ccc([N+](=O)[O-])cc1N |  |  | Activity_index [9]: 1350; Activity_index [10]: 1350
30.3 µM | 1.02 µM | CC(=O)OCCCc1cn(CCCCCCCCCCCCOS(C)(=O)=O)nn1 |  | 56.1 µM | CC50 at 72 h [2]: 26.6 µM
82.2 µM |  | CS(=O)(=O)OCCCCCCCCCn1cc(CCCO)nn1 |  |  | 
47.6 µM |  | CCOC(=O)c1cn(CCCCCCCCCI)nn1 |  |  | 
37.1 µM | 2.26 µM | OCCCc1cn(CCCCCCCCCCCCF)nn1 | 9.83 | 15.1 µM | CC50 at 72 h [2]: 163 µM
225 µM |  | CS(=O)(=O)OCCCCCCCCCCCCn1cc(CCC(=O)O)nn1 |  |  | 
67.7 µM |  | OCCCc1cn(CCCCCCCCCI)nn1 |  |  | 
75.9 µM |  | CCOC(=O)c1cn(CCCCCCCCCCCCOS(C)(=O)=O)nn1 |  |  | 
 | 0.125 µM | CC(C)C[C@H](NC(=O)[C@H]1O[C@@H]1C(=O)O)C(=O)NCCCCN=C(N)N [E-64] |  |  | 
